Test results published in PubChem BioAssay AID1745844 (Carcinogenic Potency Database (CPDB), 2022).
Activity calls are given as the source filed them. How the calls were made is not given here.

System: rodent lifetime carcinogenesis bioassay, tumor incidence TD50
Assay: carcinogenic potency in animals, long-term in vivo studies, CPDB compilation (AID 1745844)

Compound `CC=NN(C)C=O` has a TD50 (mouse, strain Swiss albino, females, by gavage, site: clitoral gland, lesion: several types, types named in the paper, dosed 52 weeks, study length 109 weeks) of 38.2 mg/kg/day, a TD50 (mouse, strain Swiss albino, females, by gavage, site: clitoral gland, lesion: squamous-cell carcinoma, dosed 52 weeks, study length 109 weeks) of 46.4 mg/kg/day and a TD50 (mouse, strain Swiss albino, females, by gavage, site: forestomach, lesion: several types, types named in the paper, dosed 52 weeks, study length 109 weeks) of 28 mg/kg/day. For the same compound, the TD50 (mouse, strain Swiss albino, females, by gavage, site: forestomach, lesion: squamous-cell papilloma, dosed 52 weeks, study length 109 weeks) was 32.4 mg/kg/day, the TD50 (mouse, strain Swiss albino, females, by gavage, site: liver, lesion: hepatoma, dosed 52 weeks, study length 109 weeks) was 28 mg/kg/day (inactive) and the TD50 (mouse, strain Swiss albino, females, by gavage, site: lung, lesion: adenocarcinoma, dosed 52 weeks, study length 109 weeks) was 19.6 mg/kg/day. For the same compound, the TD50 (mouse, strain Swiss albino, females, by gavage, site: lung, lesion: adenoma, dosed 52 weeks, study length 109 weeks) was 7.37 mg/kg/day, the TD50 (mouse, strain Swiss albino, females, by gavage, site: lung, lesion: several types, types named in the paper, dosed 52 weeks, study length 109 weeks) was 5.66 mg/kg/day and the TD50 (mouse, strain Swiss albino, males, by gavage, site: liver, lesion: hepatoma, dosed 52 weeks, study length 79 weeks) was 11 mg/kg/day (inactive). The TD50 (mouse, strain Swiss albino, males, by gavage, site: lung, lesion: adenoma, dosed 52 weeks, study length 79 weeks) was 13.7 mg/kg/day, the TD50 (mouse, strain Swiss albino, males, by gavage, site: lung, lesion: several types, types named in the paper, dosed 52 weeks, study length 79 weeks) was 14.4 mg/kg/day and the TD50 (mouse, strain Swiss albino, males, by gavage, site: preputial gland, lesion: fibrosarcoma, dosed 52 weeks, study length 79 weeks) was 21.3 mg/kg/day. The TD50 (mouse, strain Swiss albino, males, by gavage, site: preputial gland, lesion: several types, types named in the paper, dosed 52 weeks, study length 79 weeks) was 1.61 mg/kg/day and the TD50 (mouse, strain Swiss albino, males, by gavage, site: preputial gland, lesion: squamous-cell carcinoma, dosed 52 weeks, study length 79 weeks) was 2.17 mg/kg/day.

`O=C1CCCCCN1` was tested, and the carcinogen call (mouse, strain B6C3F1, females, in feed, site: any site (literature study), lesion: several types, types named in the paper, dosed 103 weeks, study length 105 weeks) was “negative (inactive)”, the carcinogen call (mouse, strain B6C3F1, males, in feed, site: any site (literature study), lesion: several types, types named in the paper, dosed 103 weeks, study length 105 weeks) was “negative (inactive)” and the TD50 (mouse, strain B6C3F1, males, in feed, site: liver, lesion: hepatocellular adenoma + hepatocellular carcinoma + neoplastic nodule, dosed 103 weeks, study length 105 weeks) was 34300 mg/kg/day. For the same compound, the carcinogen call (rat, strain Fischer 344, females, in feed, site: any site (literature study), lesion: several types, types named in the paper, dosed 103 weeks, study length 105 weeks) was “negative (inactive)”, the TD50 (rat, strain Fischer 344, males, in feed, site: liver, lesion: hepatocellular adenoma + hepatocellular carcinoma + neoplastic nodule, dosed 103 weeks, study length 105 weeks) was 5690 mg/kg/day and the TD50 (rat, strain Fischer 344, males, in feed, site: pituitary gland, lesion: carcinoma, NOS, dosed 103 weeks, study length 105 weeks) was 3560 mg/kg/day (inactive).

`C=CCN(CC=C)N=O` gave a TD50 (hamster, strain Syrian Golden, both sexes, by gavage, site: any site (literature study), lesion: several types, types named in the paper, dosed 53 weeks, study length 59 weeks) of 1.54 mg/kg/day, a TD50 (hamster, strain Syrian Golden, both sexes, by gavage, site: larynx, lesion: papillary polyp, dosed 53 weeks, study length 59 weeks) of 3.69 mg/kg/day and a TD50 (hamster, strain Syrian Golden, both sexes, by gavage, site: liver, lesion: cholangioma, dosed 53 weeks, study length 59 weeks) of 743 mg/kg/day. It also gave a TD50 (hamster, strain Syrian Golden, both sexes, by gavage, site: nasal cavity, posterior region, lesion: adenocarcinoma, dosed 53 weeks, study length 59 weeks) of 2.86 mg/kg/day, a TD50 (hamster, strain Syrian Golden, both sexes, by gavage, site: pharynx, lesion: papilloma, dosed 53 weeks, study length 59 weeks) of 25.3 mg/kg/day and a TD50 (hamster, strain Syrian Golden, both sexes, by gavage, site: trachea, lesion: papillary polyp, dosed 53 weeks, study length 59 weeks) of 2.84 mg/kg/day. It also gave a TD50 (rat, strain BD IX, females, in drinking water, site: nasal and paranasal cavity, lesion: adenocarcinoma, dosed 104 weeks, study length 104 weeks) of 33.6 mg/kg/day, a TD50 (rat, strain BD IX, females, in drinking water, site: nasal and paranasal cavity, lesion: several types, types named in the paper, dosed 104 weeks, study length 104 weeks) of 32.1 mg/kg/day and a TD50 (rat, strain BD IX, males, in drinking water, site: nasal and paranasal cavity, lesion: adenocarcinoma, dosed 104 weeks, study length 104 weeks) of 46.9 mg/kg/day. It also gave a TD50 (rat, strain BD IX, males, in drinking water, site: nasal and paranasal cavity, lesion: several types, types named in the paper, dosed 104 weeks, study length 104 weeks) of 36 mg/kg/day.

With `O=NN1CSCSC1` the TD50 (rat, strain Fischer 344, females, by gavage, site: liver, lesion: hepatocellular carcinoma, dosed 47 weeks, study length 110 weeks) was 10.5 mg/kg/day (inactive) and the TD50 (rat, strain Fischer 344, females, by gavage, site: nasal mucosa, lesion: carcinoma, dosed 47 weeks, study length 110 weeks) was 5.11 mg/kg/day.

`O=P(OCC(Br)CBr)(OCC(Br)CBr)OCC(Br)CBr` (stereo unspecified) showed a TD50 (mouse, strain B6C3F1, females, in feed, site: any site (literature study), lesion: several types, types named in the paper, dosed 103 weeks, study length 104 weeks) of 148 mg/kg/day, a TD50 (mouse, strain B6C3F1, females, in feed, site: liver + lung + stomach, lesion: hepatocellular adenoma + hepatocellular carcinoma + alveolar/bronchiolar adenoma + alveolar/bronchiolar carcinoma + squamous-cel, dosed 103 weeks, study length 104 weeks) of 80.1 mg/kg/day and a TD50 (mouse, strain B6C3F1, females, in feed, site: liver, lesion: hepatocellular adenoma + hepatocellular carcinoma + neoplastic nodule, dosed 103 weeks, study length 104 weeks) of 95 mg/kg/day. The TD50 (mouse, strain B6C3F1, females, in feed, site: liver, lesion: hepatocellular adenoma + hepatocellular carcinoma, dosed 103 weeks, study length 104 weeks) was 95 mg/kg/day, the TD50 (mouse, strain B6C3F1, females, in feed, site: liver, lesion: hepatocellular carcinoma, dosed 103 weeks, study length 104 weeks) was 221 mg/kg/day and the TD50 (mouse, strain B6C3F1, females, in feed, site: lung, lesion: alveolar/bronchiolar adenoma + alveolar/bronchiolar carcinoma, dosed 103 weeks, study length 104 weeks) was 225 mg/kg/day. It also gave a TD50 (mouse, strain B6C3F1, females, in feed, site: stomach, lesion: squamous-cell carcinoma + squamous-cell papilloma, dosed 103 weeks, study length 104 weeks) of 127 mg/kg/day, a TD50 (mouse, strain B6C3F1, females, in feed, site: stomach, lesion: squamous-cell carcinoma, dosed 103 weeks, study length 104 weeks) of 611 mg/kg/day and a TD50 (mouse, strain B6C3F1, females, in feed, site: uterus, lesion: endometrial stromal polyp, dosed 103 weeks, study length 104 weeks) of 264 mg/kg/day. The TD50 (mouse, strain B6C3F1, males, in feed, site: any site (literature study), lesion: several types, types named in the paper, dosed 103 weeks, study length 104 weeks) was 2220 mg/kg/day, the TD50 (mouse, strain B6C3F1, males, in feed, site: kidney + lung + stomach, lesion: tubular-cell adenoma + tubular-cell adenocarcinoma + alveolar/bronchiolar adenoma + alveolar/bronchiolar carcinoma + squamous-ce, dosed 103 weeks, study length 104 weeks) was 103 mg/kg/day and the TD50 (mouse, strain B6C3F1, males, in feed, site: kidney, lesion: tubular-cell adenocarcinoma, dosed 103 weeks, study length 104 weeks) was 822 mg/kg/day. For the same compound, the TD50 (mouse, strain B6C3F1, males, in feed, site: kidney, lesion: tubular-cell adenoma + tubular-cell adenocarcinoma, dosed 103 weeks, study length 104 weeks) was 256 mg/kg/day, the TD50 (mouse, strain B6C3F1, males, in feed, site: liver, lesion: hepatocellular adenoma + hepatocellular carcinoma + neoplastic nodule, dosed 103 weeks, study length 104 weeks) was 172 mg/kg/day and the TD50 (mouse, strain B6C3F1, males, in feed, site: lung, lesion: alveolar/bronchiolar adenoma + alveolar/bronchiolar carcinoma, dosed 103 weeks, study length 104 weeks) was 211 mg/kg/day. It also gave a TD50 (mouse, strain B6C3F1, males, in feed, site: lung, lesion: alveolar/bronchiolar carcinoma, dosed 103 weeks, study length 104 weeks) of 449 mg/kg/day, a TD50 (mouse, strain B6C3F1, males, in feed, site: stomach, lesion: squamous-cell carcinoma + squamous-cell papilloma, dosed 103 weeks, study length 104 weeks) of 197 mg/kg/day and a TD50 (rat, strain Fischer 344, females, in feed, site: any site (literature study), lesion: several types, types named in the paper, dosed 103 weeks, study length 104 weeks) of 23 mg/kg/day. The TD50 (rat, strain Fischer 344, females, in feed, site: kidney, lesion: tubular-cell adenoma, dosed 103 weeks, study length 104 weeks) was 13.8 mg/kg/day, the TD50 (rat, strain Fischer 344, females, in feed, site: liver, lesion: hepatocellular adenoma + hepatocellular carcinoma + neoplastic nodule, dosed 103 weeks, study length 104 weeks) was 2820 mg/kg/day and the TD50 (rat, strain Fischer 344, females, in feed, site: ovary, lesion: Sertoli-cell tumor, dosed 103 weeks, study length 104 weeks) was 66.4 mg/kg/day. It also gave a TD50 (rat, strain Fischer 344, males, by gavage, site: colon, lesion: polypoid adenoma, dosed 52 weeks, study length 52 weeks) of 13.4 mg/kg/day, a TD50 (rat, strain Fischer 344, males, by gavage, site: kidney, lesion: adenocarcinoma, dosed 52 weeks, study length 52 weeks) of 54.8 mg/kg/day and a TD50 (rat, strain Fischer 344, males, in feed, site: any site (literature study), lesion: several types, types named in the paper, dosed 103 weeks, study length 104 weeks) of 8.31 mg/kg/day. The TD50 (rat, strain Fischer 344, males, in feed, site: kidney, lesion: tubular-cell adenocarcinoma, dosed 103 weeks, study length 104 weeks) was 63.3 mg/kg/day, the TD50 (rat, strain Fischer 344, males, in feed, site: kidney, lesion: tubular-cell adenoma + tubular-cell adenocarcinoma, dosed 103 weeks, study length 104 weeks) was 1.57 mg/kg/day and the TD50 (rat, strain Fischer 344, males, in feed, site: kidney, lesion: tubular-cell adenoma, dosed 103 weeks, study length 104 weeks) was 1.57 mg/kg/day. It also gave a TD50 (rat, strain Fischer 344, males, in feed, site: liver, lesion: hepatocellular adenoma + hepatocellular carcinoma + neoplastic nodule, dosed 103 weeks, study length 104 weeks) of 34.3 mg/kg/day, a TD50 (rat, strain Fischer 344, males, in feed, site: liver, lesion: hepatocellular carcinoma + neoplastic nodule, dosed 103 weeks, study length 104 weeks) of 34.3 mg/kg/day and a TD50 (rat, strain Fischer 344, males, in feed, site: preputial gland, lesion: adenocarcinoma, NOS + adenoma, NOS + carcinoma, NOS, dosed 103 weeks, study length 104 weeks) of 20.3 mg/kg/day.

With `O=Nc1ccc(NO)cc1` the TD50 (mouse, strain B6C3F1, females, in feed, site: any site (literature study), lesion: several types, types named in the paper, dosed 104 weeks, study length 105 weeks) was 6710 mg/kg/day (inactive), the TD50 (mouse, strain B6C3F1, females, in feed, site: liver, lesion: hepatocellular adenoma + hepatocellular carcinoma + neoplastic nodule, dosed 104 weeks, study length 105 weeks) was 656 mg/kg/day and the TD50 (mouse, strain B6C3F1, females, in feed, site: lung, lesion: alveolar/bronchiolar adenoma + alveolar/bronchiolar carcinoma, dosed 104 weeks, study length 105 weeks) was 6660 mg/kg/day. For the same compound, the TD50 (mouse, strain B6C3F1, males, in feed, site: any site (literature study), lesion: several types, types named in the paper, dosed 104 weeks, study length 105 weeks) was 936 mg/kg/day (inactive), the TD50 (mouse, strain B6C3F1, males, in feed, site: liver, lesion: hepatocellular adenoma + hepatocellular carcinoma + neoplastic nodule, dosed 104 weeks, study length 105 weeks) was 1.23e+06 mg/kg/day and the TD50 (rat, strain Fischer 344, females, in feed, site: urinary bladder, lesion: squamous-cell carcinoma + transitional-cell carcinoma + transitional-cell papilloma, dosed 104 weeks, study length 105 weeks) was 106 mg/kg/day. For the same compound, the TD50 (rat, strain Fischer 344, females, in feed, site: urinary bladder, lesion: transitional-cell carcinoma, dosed 104 weeks, study length 105 weeks) was 182 mg/kg/day, the TD50 (rat, strain Fischer 344, males, in feed, site: any site (literature study), lesion: several types, types named in the paper, dosed 104 weeks, study length 105 weeks) was 349 mg/kg/day (inactive) and the TD50 (rat, strain Fischer 344, males, in feed, site: liver, lesion: hepatocellular adenoma + hepatocellular carcinoma + neoplastic nodule, dosed 104 weeks, study length 105 weeks) was 1130 mg/kg/day.
